# Measured values taken from US12156874B2, “Inhibitors of TRPC6” (Boehringer Ingelheim International GmbH, priority 2019, dated 2024).
# System: TRPC6
# Experiment: not given
# Details: lung tissue of IPAH patients; cited from earlier work
row,SMILES,expression of TRPC6
1,COc1ccccc1Oc1c(NS(=O)(=O)c2ccc(C(C)(C)C)cc2)nc(-c2ncccn2)nc1OCCO [bosentan],decreases expression of TRPC6

# System: PASMC
# Experiment: not given
# Details: cited from earlier work
row,SMILES,proliferation of PASMC
1,COc1ccccc1Oc1c(NS(=O)(=O)c2ccc(C(C)(C)C)cc2)nc(-c2ncccn2)nc1OCCO [bosentan],decreases proliferation

# Target: T1, human TRPC6 (Homo sapiens, UniProt Q9Y210)
# T1 construct: expressed in transfected cells; host or cells: HEK293
# T1 sequence (Q9Y210 1-931): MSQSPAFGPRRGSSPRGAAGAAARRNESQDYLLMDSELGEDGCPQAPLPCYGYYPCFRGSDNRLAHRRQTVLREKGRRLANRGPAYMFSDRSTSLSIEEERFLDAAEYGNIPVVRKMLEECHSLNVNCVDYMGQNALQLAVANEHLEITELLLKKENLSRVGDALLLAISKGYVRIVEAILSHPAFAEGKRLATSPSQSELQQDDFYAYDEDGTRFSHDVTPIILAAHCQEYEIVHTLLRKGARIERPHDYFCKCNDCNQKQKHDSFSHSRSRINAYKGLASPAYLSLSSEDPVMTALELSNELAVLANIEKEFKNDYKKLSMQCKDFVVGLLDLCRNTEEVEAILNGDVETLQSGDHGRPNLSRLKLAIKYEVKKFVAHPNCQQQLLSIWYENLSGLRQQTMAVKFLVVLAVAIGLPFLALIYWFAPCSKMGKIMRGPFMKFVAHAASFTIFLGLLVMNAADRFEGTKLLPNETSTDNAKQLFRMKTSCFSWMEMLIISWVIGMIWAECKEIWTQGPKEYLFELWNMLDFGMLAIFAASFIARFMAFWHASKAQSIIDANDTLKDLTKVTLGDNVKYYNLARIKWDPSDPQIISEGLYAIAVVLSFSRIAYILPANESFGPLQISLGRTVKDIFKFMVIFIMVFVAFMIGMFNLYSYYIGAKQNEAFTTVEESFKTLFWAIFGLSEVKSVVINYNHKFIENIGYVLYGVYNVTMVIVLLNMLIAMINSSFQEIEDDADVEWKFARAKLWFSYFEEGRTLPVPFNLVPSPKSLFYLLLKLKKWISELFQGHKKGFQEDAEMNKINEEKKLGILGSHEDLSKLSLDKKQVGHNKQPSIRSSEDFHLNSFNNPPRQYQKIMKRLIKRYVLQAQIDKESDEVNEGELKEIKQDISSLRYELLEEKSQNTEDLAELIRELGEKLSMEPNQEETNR
# Experiment: Assay A: Determination of TRPC6 inhibition, whole-cell patch clamp assay
# Assay type: cell-based
# Details: 30 nM; HEK293 cells expressing human TRPC6; pre-incubated at least 3 h; average inward current densities vs vehicle; activated by 10 μM ethyl 8-fluoro-1H,2H,3H,4H,5H-pyrido[4,3-b]indole-2-carboxylate
# Description: Assay A: Determination of TRPC6 Inhibition
# HEK293 cells transfected with a plasmid expressing human TRPC6 are used for a patch clamp assay. Patch clamp experiments permit the detection of currents through TRPC6 channels in cellular systems as mentioned above. For whole-cell patch clamp recordings, a glass capillary electrode filled with electrolyte is brought into contact with a single cell and a high-resistance (gigaohm) seal is established with the cell membrane. The membrane is then ruptured to achieve the whole-cell configuration, permitting control of the intracellular electrical potential and measurement of electrical currents across the cell membrane using an amplifier connected to the electrode. A perfusion system permits control of the extracellular solution, including the addition of inhibitors and activators of TRPC6 channels. The TRPC6 current can be activated by 10 μM ethyl 8-fluoro-1H,2H,3H,4H,5H-pyrido[4,3-b]indole-2-carboxylate (commercially available, MFCD02930345) in the extracellular solution.
# For the characterization of TRPC6 inhibitors, TRPC6 expression was induced for 20-48 hours, cells were removed from growth plates, and replated at low density (to attain good single-cell physical separation) in small dishes for measurement. Patch clamp recordings were performed in the whole-cell configuration at a holding potential of −40 mV. Every 1.5 seconds, a 400 ms voltage ramp was applied from −80 to +80 mV, flanked by 50 ms constant segments at −80 and +80 mV, respectively. TRPC6-mediated currents were quantified during those constant segments at −80 mV and +80 mV. The internal (pipette) solution consisted of 140 mM cesium aspartate, 10 mM EGTA, 1.91 mM CaCl2, 2.27 mM MgCl2 and 10 mM HEPES, pH 7.2 with CsOH, 40 nM calculated free Ca^2+. The external (bath) solution consisted of 145 mM NaCl, 4.5 mM KCl, 3 mM MgCl2, 10 mM HEPES, 10 mM glucose, 1 mM EGTA, pH 7.4 with NaOH. TRPC6 expressing cells were pre-incubated with potential inhibitors at either 30 nM or at various concentrations (for concentration-response-curves) or vehicle for at least 3 h and both maximal inward and outward currents were determined after addition of ethyl 8-fluoro-1H,2H,3H,4H,5H-pyrido[4,3-b]indole-2-carboxylate. Percent current inhibition was calculated from the average inward current densities of treated and vehicle cells. Current densities were calculated as absolute current normalized with respect to the individual cell's membrane capacitance as a surrogate parameter for cellular surface area. The number of cells measured for each group was chosen in a way that an average of 50% current inhibition with respect to the vehicle group would yield a statistically significant difference (p<0.05) in 90% of the cases based on the variability in current expression between cells. For the estimation of half-inhibitory concentrations, the Hill equation was fitted to the average % percent inhibition values at a series of concentrations of a specific compound.
row,inhibition at 0.03 µM [%],SMILES
1,81,"COc1ccc(Oc2ccc(C(=O)N3CC[C@H](c4nnc(N)cc4C)C[C@@H]3C)cc2)cn1 [Compound 1, 6-[(2S,4S)-1-{4-[(6-Methoxypyridin-3-yl)oxy]benzoyl}-2-methylpiperidin-4-yl]-5-methylpyridazin-3-amine trifluoroacetic acid]"
2,60,"COc1ccc(Oc2ccc(C(=O)N3CC[C@H](c4nnc(N)cc4C)C[C@@H]3C)cc2OC)cn1 [Compound 2, 6-[(2S,4S)-1-{3-Methoxy-4-[(6-methoxypyridin-3-yl)oxy]benzoyl}-2-methylpiperidin-4-yl]-5-methylpyridazin-3-amine]"
3,12,"COc1cc(C(=O)N2CC[C@H](c3nnc(N)cc3C)C[C@@H]2C)ccc1Oc1ccc(C(F)(F)F)nc1 [Compound 4, 6-[(2S,4S)-1-(3-Methoxy-4-{[6-(trifluoromethyl)pyridin-3-yl]oxy}benzoyl)-2-methylpiperidin-4-yl]-5-methylpyridazin-3-amine]"
4,27,"COc1ccc(Oc2cnc(C(=O)N3CCC(c4ccc(N)nn4)CC3)cc2OC)cn1 [Compound 5, 6-(1-{4-Methoxy-5-[(6-methoxypyridin-3-yl)oxy]pyridine-2-carbonyl}piperidin-4-yl)pyridazin-3-amine trifluoracetic acid]"
5,72,"COc1ccc(Oc2ccc(C(=O)N3CC[C@@H](c4nnc(N)cc4C)[C@@H](C)C3)cc2OC)cn1 [Compound 6, 6-[(3R,4R)-1-{3-Methoxy-4-[(6-methoxypyridin-3-yl)oxy]benzoyl}-3-methylpiperidin-4-yl]-5-methylpyridazin-3-amine]"
6,61,"COc1ccc(Oc2ccc(C(=O)N3CCC(c4nnc(N)cc4C)CC3)cc2)cn1 [Compound 7, 6-(1-{4-[(6-Methoxypyridin-3-yl)oxy]benzoyl}piperidin-4-yl)-5-methylpyridazin-3-amine trifluoroacetic acid]"
7,37,"COc1ccc(Oc2ccc(C(=O)N3CCC(c4nnc(N)cc4C)CC3)cc2OC)cn1 [Compound 8, 6-(1-{3-Methoxy-4-[(6-methoxypyridin-3-yl)oxy]benzoyl}piperidin-4-yl)-5-methylpyridazin-3-amine trifluoroacetic acid]"
8,51,"COc1ccc(Oc2cnc(C(=O)N3CCC(c4nnc(N)cc4C)CC3)cc2OC)cn1 [Compound 9, 6-(1-{4-Methoxy-5-[(6-methoxypyridin-3-yl)oxy]pyridine-2-carbonyl}piperidin-4-yl)-5-methylpyridazin-3-amine trifluoracetic acid]"
